# Key:
# S. typhimurium TA 1530 = type: cell-based, Salmonella typhimurium
# [1] = microsomes
# [2] = tested on: E. coli AB 2480 (uvrA recA)
# in vitro = conditions: male, Wistar, Escherichia coli (indicator bacteria); rat (liver fraction)
# S. typhimurium his G46 = type: cell-based, Salmonella typhimurium
# S. typhimurium his C207 = type: cell-based, Salmonella typhimurium
# rat liver = conditions: in vivo; cited from earlier work
# Drosophila = conditions: in vivo; cited from earlier work
# Neurospora = conditions: cited from earlier work
# [3] = tested on: bacterial transforming DNA; conditions: cited from earlier work
molecule,measurement,setting,value
"OCC(S)CS (centres unmarked) [2,3-Dimercaptopropanol]",Effect of added agent on bacterial killing by the aflatoxin B1 metabolite,S. typhimurium TA 1530,some protective action
same,Inhibition of killing (fold),S. typhimurium TA 1530,three-fold
same,Survivors in the presence of dimercaptopropanol,S. typhimurium TA 1530,42%
same,Effect on amount of aflatoxin B1 metabolized,[1],no alteration in the amount of aflatoxin B1 metabolized
"Cc1ccc2cc3c(ccc4ccccc43)c3c2c1CC3 [3-methylcholanthrene, reference compound]",Effect of pretreatment of rats on amount of lethal aflatoxin B1 metabolite formed by liver,[2],did not alter the amount
COc1c2c(c3oc4cccc(O)c4c(=O)c3c1OC)C1C=COC1O2 (centres unmarked) [5-methoxysterigmatocystin],Formation of toxic metabolites on incubation with mixed function oxidases,[2],Toxic metabolites were also formed
COc1cccc2oc3c4c(cc(OC)c3c(=O)c12)OC1OC=CC41 (centres unmarked) [O-methylsterigmatocystin],Formation of toxic metabolites on incubation with mixed function oxidases,[2],Toxic metabolites were also formed
"COc1cc2c(c3oc(=O)cc(CCO)c13)C1C=COC1O2 (centres unmarked) [Parasiticol, parasiticol]",Formation of toxic metabolites on incubation with mixed function oxidases,[2],Toxic metabolites were also formed
"CCC1(c2ccccc2)C(=O)NC(=O)NC1=O [Phenobarbitone, phenobarbitone, reference compound]",Effect of pretreatment of rats on amount of lethal aflatoxin B1 metabolite formed by liver,[2],an increase was observed
"O=C1c2cc(O)cc(O)c2C(=O)c2c1cc1c(c2O)[C@@H]2C=CO[C@@H]2O1 [Versicolorin A, versicolorin A]",Formation of toxic metabolites on incubation with mixed function oxidases,[2],Toxic metabolites were also formed
"c1ccc2c(c1)cc1ccc3cccc4ccc2c1c34 [benzo(a)pyrene, reference compound]",Effect of pretreatment of rats on amount of lethal aflatoxin B1 metabolite formed by liver,[2],did not alter the amount
C1CCC2OC2C1 (centres unmarked) [cyclohexene oxide],Effect of added agent on bacterial killing by the aflatoxin B1 metabolite,S. typhimurium TA 1530,did not alter bacterial killing
N[C@@H](CS)C(=O)O [cysteine],Effect of added agent on bacterial killing by the aflatoxin B1 metabolite,S. typhimurium TA 1530,did not alter bacterial killing
N[C@@H](CCC(=O)N[C@@H](CS)C(=O)NCC(=O)O)C(=O)O [glutathione],Effect of added agent on bacterial killing by the aflatoxin B1 metabolite,S. typhimurium TA 1530,did not alter bacterial killing
CSCC[C@H](N)C(=O)O [methionine],Effect of added agent on bacterial killing by the aflatoxin B1 metabolite,S. typhimurium TA 1530,did not alter bacterial killing
O=S([O-])([O-])=S.[Na+].[Na+] [sodium thiosulphate],Effect of added agent on bacterial killing by the aflatoxin B1 metabolite,S. typhimurium TA 1530,did not alter bacterial killing
COc1cc2c(c3oc4cccc(O)c4c(=O)c13)[C@@H]1C=CO[C@@H]1O2 [sterigmatocystin],Survival [no. viable bacteria (treated)/no. viable bacteria (control) x 100],[2],0- 3
same,viability,in vitro,0.5%
aflatoxin B1,Effect of incubation at 30 C on number of bacteria killed,S. typhimurium TA 1530,a decrease in the number of bacteria killed
same,Mutation of the strain by the aflatoxin B1 metabolite,S. typhimurium his G46,not mutated by it
same,Sensitivity of the strain to the toxic effects of the metabolite,S. typhimurium his G46,resistant to the toxic effects
same,Mutation of the strain by the aflatoxin B1 metabolite,S. typhimurium his C207,not mutated by it
same,Sensitivity of the strain to the toxic effects of the metabolite,S. typhimurium his C207,resistant to the toxic effects
same,Killing activity with heat denatured liver preparation,[2],abolished all killing activity
same,Liver carcinogenicity,rat liver,most potent liver carcinogen known for the rat
same,Mutagenicity,Drosophila,mutagenic
same,Mutagenicity,Neurospora,mutagenic
same,Mutagenicity,[3],mutagenic
sodium sulphide,Effect of added agent on bacterial killing by the aflatoxin B1 metabolite,S. typhimurium TA 1530,did not alter bacterial killing
